How the values were obtained:
[1] = system: iNOS; assay: iNOS immunostaining of colon sections; assay type: in vivo, male F344 rats; settings: 40 ppm in diet, AOM-treated rats
Procedure: Animals were treated as described in Example 27. Colon samples from each group were harvested at autopsy and fixed in 10% formalin for 24 hr. They were sectioned into 8 to 10 segments, paraffin embedded, and microtomed into 4 μm thick tissue sections. The slides were incubated overnight at room temperature with antibody to proliferating cell nuclear antigen (PCNA) (1:1000 diluted, BD Pharmingen, San Diego, Calif.), iNOS (1:100 diluted, Santa Cruz Biotechnology, Santa Cruz, Calif.), or mucin MUC2 (1:250 diluted, Santa Cruz Biotechnology, Santa Cruz, Calif.).
The slides were incubated with the biotinylated secondary antibody, and then with avidin/biotinylated peroxidase complex for 30 min at room temperature (Vector Labs, Burlingame, Calif.), and were incubated with […] (DAB) substrate. The sections were then counter-stained with Modified Harris Hematoxylin. The images were taken randomly at 400× using Zeiss AxioCam HRc camera fitted to a Zeiss Axioskope 2 Plus microscope. A positive reaction is noted by a reddish brown precipitate in the nucleus for PCNA, in the cytoplasm for iNOS or in the colon crypts for mucin MUC2.

[2] = system: p-Smad3; assay: Activated Smad levels (p-Smad3) in HT-29 cells; assay type: cell-based, human; settings: HT-29, data not shown
From the text: (§1) The significance of the transforming growth factor (TGF-β) pathway in down-regulating iNOS expression by pterostilbene was also investigated since TGF-β is a very potent inhibitor of iNOS and cytokines regulate Smad signaling of the TGF-β pathway. However, there was no effect of pterostilbene on activated Smad levels (p-Smad3) or in inducing TGF-β ligands (data not shown).

[3] = system: TGF-β ligands; assay: Induction of TGF-β ligands in HT-29 cells; assay type: cell-based, human; settings: HT-29, data not shown
From the text: as §1

[4] = system: ERK1/2; assay: Western blot of phosphorylated ERK1/2 in cytokine-treated HT-29 cells; assay type: cell-based, human
Procedure: (§2) The cell culture conditions and the reagents used in this example were described in Example 32. Whole cell extracts were collected after the various treatments and analyzed by western blotting. The protein samples were separated on 4-15% SDS-PAGE gels (Biorad, Hercules, Calif.) followed by transfer to a polyvinylidene fluoride membrane. The membranes were blocked with 5% milk in Tris buffer for 1 h and then incubated with the appropriate primary antibody solutions overnight at 4° C. The membranes were washed with Tris buffer, and incubated with horseradish peroxidase conjugated secondary antibody solutions for 1 h at room temperature.
(§3) The protein bands were visualized using a chemiluminescence based kit from Amersham Biosciences (Buckinghamshire, UK). The primary antibodies against iNOS, COX-2, IκBα, cyclin D1, c-myc (Santa Cruz Bio-technology, Santa Cruz, Calif.), phospho-STAT3, phospho-Erk1/2, phospho-JNK1/2, phospho-p38, phospho-Akt, phospho-ATF2, phospho-Elk1, PARP (Cell Signaling Technology Inc., Beverly, Mass.) and actin (Sigma, St. Louis, Mo.) and secondary antibodies (Santa Cruz Biotechnology, Santa Cruz, Calif.) were used for probing the abundance of the target protein in the samples.

[5] = system: ATF2; assay: Western blot of cytokine-induced ATF2 phosphorylation in HT-29 cells; assay type: cell-based, human; settings: cytokine-treated HT-29
Procedure: as §2
as §3, with “samples. […]” for “samples.”

[6] = system: TNF-α mRNA; assay: Quantitative RT-PCR of cytokine-induced TNF-α mRNA in HT-29 cells; assay type: cell-based, human
Procedure: (§4) The cell culture conditions and the reagents used in this example were described in Example 32. The gene-mediated expression of iNOS and COX-2 are reported to be regulated at both the transcriptional and translational levels. In order to understand the effect of pterostilbene on cytokine-induced expression of proinflammatory enzymes and cytokines, RNA samples after treatment of HT-29 cells with cytokines and/or pterostilbene were analyzed by quantitative RT-PCR for the induction of mRNA levels of iNOS, COX-2, IL-1β, IFN-γ and TNF-α genes.
(§5) To determine the changes of mRNA levels by pterostilbene and cytokines, quantitative RT-PCR analysis was utilized, as described previously (Lee et al., Mol Pharmacol 2006; 69(6):1840-1848). Briefly, the cells were incubated with compounds for indicated period and the cells were then lysed using Trizol to extract RNA. RNA was reverse transcribed into cDNA using a high capacity cDNA archive kit (Applied Biosystems, Foster City, Calif.). The cDNA was used for quantitative PCR which was run on the ABI Prism […] sequence Detection System. The primers for the iNOS, COX-2, IFN-γ, TNF-α, IL-1β and GAPDH were obtained from Applied Biosystems (Foster City, Calif.).

[7] = system: p38; assay: Western blot of phosphorylated p38 in cytokine-treated HT-29 cells; assay type: cell-based, human
Procedure: as §2, §3

[8] = system: phospho-STAT3; assay: Western blot of phospho-STAT3 in cytokine-treated HT-29 cells; assay type: cell-based, human
Procedure: as §2, §3
The significance of the JAK-STAT pathway in HT-29 cells was evaluated by probing for phospho-STAT3. Cytokines activated the STAT pathway, as shown by a strong induction of phospho-STAT3.

[9] = system: cyclin D1; assay: Western blot of cyclin D1 in HT-29 cells; assay type: cell-based, human; settings: 9 h or 18 h, especially at 9 h
Procedure: (§6) The cells were incubated with different concentrations of pterostilbene for 1, 2 and 3 days, and cell proliferation was estimated by measuring [^3H]thymidine incorporated into DNA. […] In order to evaluate whether pterostilbene potentiates cell cycle arrest or apoptosis in HT-29 cells, the effect of pterostilbene on the proteins regulating the cell cycle and/or apoptosis pathways was examined. Cells treated with pterostilbene for 9 h or 18 h were harvested and protein samples were analyzed by Western blotting (FIG. 8B).
as §2
(§7) The protein bands were visualized using a chemiluminescence based kit from Amersham Biosciences (Buckinghamshire, UK). […]

[10] = Body weight / overt toxicity during the ACF feeding study; assay type: in vivo; settings: 40 ppm in diet
Procedure: Beginning at 5 weeks of age, all rats were fed the modified American Institute of Nutrition-76A (AIN-76A) diet. At 7 weeks of age, the animals were given s.c. injections of azoxymethane (AOM) (CAS no. 25843-45-2, Ash Stevens, Detroit, Mich.) once weekly for 2 weeks at a dose rate of 15 mg/kg body weight. One day after the second AOM injection, groups of animals (n=9 per group) were maintained on AIN-76A diet alone and AIN-76A diet containing 40 ppm pterostilbene. […] See, e.g., U.S. Application Publication No. US 2006-0057231 A1.
On the average, the animal consumed about 0.6 mg pterostilbene per day. All rats were weighed once weekly until termination of the study at 8 weeks after the second AOM treatment were sacrificed by CO2 asphyxiation. After laparotomy, the entire stomach, small intestine, and large intestine were resected. The organs were opened longitudinally, and the contents were flushed with normal saline.

[11] = system: p21; assay: Western blot of p21 in HT-29 cells; assay type: cell-based, human; settings: HT-29, data not shown
Procedure: as §6, §2, §7

[12] = system: iNOS mRNA; assay: Quantitative RT-PCR of cytokine-induced iNOS mRNA in HT-29 cells; assay type: cell-based, human; settings: 10 and 30 μM
Procedure: as §4, §5

[13] = system: IL-1β mRNA; assay: Quantitative RT-PCR of cytokine-induced IL-1β mRNA in HT-29 cells; assay type: cell-based, human; settings: 10 and 30 μM
Procedure: as §4, §5

COc1cc(/C=C/c2ccc(O)cc2)cc(OC)c1 [pterostilbene, (E)-4-(3,5-dimethoxystyryl)phenol]
iNOS staining of ACF with moderate dysplasia [1]: weak cytoplasmic staining
activated Smad levels (p-Smad3) [2]: no effect
inducing TGF-β ligands [3]: no effect
ERK1/2 activation by cytokines [4]: did not block
cytokine-induced activation (phosphorylation) of ATF2 [5]: effective in inhibiting
TNF-α mRNA induction by the cytokine mixture [6]: weak inhibitory effect
activation of p38 by cytokines [7]: strongly inhibited
level of induced phospho-STAT3 [8]: did not alter
cyclin D1 level [9]: effective in reducing
overt toxicity [10]: did not cause any overt toxicity
body weights compared to control diet ([10]; throughout the study): comparable
induction of p21 [11]: no induction
iNOS mRNA induction by the cytokine mixture [12]: strongly inhibited
IL-1β mRNA induction by the cytokine mixture [13]: strongly inhibited
